Data: US11293911B2, “Multi-phase liquid composition, device for measuring permeability of drugs, and method for measuring permeability of drugs” (priority 2017, dated 2022)
Like-named read-outs stand apart in the source and are kept apart here.

Columns and labels:
[1] = in vitro; conditions: PAMPA
Experimental: Subsequently, the drug concentration of the portion corresponding to the cell membrane inside (acceptor) is obtained by HPLC or UV spectroscopy, from which the membrane permeability of the corresponding drugs is calculated.

[2] = in vitro; assay type: in vitro ADME; conditions: for Papp: not told, read-out: Permeability according to examples
Experimental: A DOPC lipid dissolved in chloroform and commercially available was collected in a glass vial, and chloroform was removed by blowing nitrogen.
The lipid film was left in the glass vial, to which the organic phase (1:1 (v/v) mixture of squalane and silicone oil (AR20)) was added, and then sonication was performed for 10-15 minutes to uniformly disperse the lipid in the oil.
Finally, an oil solution in which the lipid was dissolved (DOPC concentration: 4 mg/ml) was obtained.
Then, distilled water was added to a UV cuvette and the prepared lipid solution was added thereon.
At this time, the process of producing the lipid bilayer was performed by adding a small amount of fluorescently labeled lipid and observing it through a fluorescence microscope.
At this time, a magnetic stirring bar is placed under the UV cuvette and the lower water layer is continuously stirred during the measurement. This makes it unnecessary to consider the time when the drug passes through the lipid bilayer and diffuses to the area irradiated with UV.
The R2 value was calculated in order to determine how well the concentration and absorbance correlate at each wavelength, and the wavelength at which this value exceeds 0.99 was irradiated in the experiment.
More specifically, in FIG. 3, CA(t) means the concentration of an acceptor solution over time (where the first aqueous phase is located under the cuvette, where the drug reaches through the first lipid bilayer) and Ceq means the equilibrium concentration of the acceptor solution droplet (serving as a donor solution to provide a drug), and the acceptor solution, and is calculated by the following General Formula 1. Ceq=CD(0)VD/(VD+VA) [General Formula 1]
In General Formula 1, VA and VD are respectively the volume of a first aqueous phase (acceptor) and the volume of a second aqueous phase (donor, droplet), and CD(0) represents the drug concentration of the initial aqueous solution droplet.

[3] = DOPC lipid bilayer, organic phase 1:1 (v/v) squalane and silicone oil (AR20), 1 μl donor droplet, real-time UV absorbance of stirred acceptor water layer

CC(=O)Nc1ccc(O)cc1 [Acetaminophen]
Papp [1]: 3.5 ×10⁻⁶ cm/s
Papp [2, 3]: 113 ×10⁻⁶ cm/s

Cc1cc(=O)n(-c2ccccc2)n1C [Antipyrine]
Papp [2]: 200 ×10⁻⁶ cm/s

Cn1c(=O)c2c(ncn2C)n(C)c1=O [Caffeine]
Papp [2, 3]: 248 ×10⁻⁶ cm/s

CN/C(=N/CCSCc1nc[nH]c1C)NC#N [Cimetidine]
Permeability to the lipid bilayer (in words) ([2]; DOPC lipid bilayer, method of the example): very low permeability
Papp [2, 3]: 7.2 ×10⁻⁶ cm/s
